One experiment concerns the target T1, KAT8 (Homo sapiens, UniProt Q9H7Z6).
T1 construct: purchased active motife (Active Motif) 81225
T1 sequence (Q9H7Z6 1-458): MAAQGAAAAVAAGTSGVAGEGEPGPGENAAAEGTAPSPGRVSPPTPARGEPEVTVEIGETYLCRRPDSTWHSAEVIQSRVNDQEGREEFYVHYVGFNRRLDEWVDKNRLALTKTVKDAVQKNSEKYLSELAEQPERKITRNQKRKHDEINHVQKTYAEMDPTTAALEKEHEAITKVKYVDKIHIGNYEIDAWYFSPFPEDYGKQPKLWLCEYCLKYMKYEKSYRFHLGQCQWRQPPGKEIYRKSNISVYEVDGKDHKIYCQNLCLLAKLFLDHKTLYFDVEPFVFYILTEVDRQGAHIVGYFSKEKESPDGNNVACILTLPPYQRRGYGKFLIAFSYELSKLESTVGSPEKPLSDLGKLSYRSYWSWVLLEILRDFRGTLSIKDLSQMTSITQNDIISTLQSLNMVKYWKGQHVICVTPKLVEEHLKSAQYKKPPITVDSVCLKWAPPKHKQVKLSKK
As to the kind of experiment: Enzymatic activity assay for KAT8 acetyltransferase (TR-FRET). Format: biochemical. Conditions: KAT8 10 nM, AcCOA 2 µM. How it is done: The acetylation effects of KAT6B on histone substrate H3, as well as KAT5, KAT7, and KAT8 on histone substrate H4, were determined using the TR-FRET (time-resolved fluorescence resonance energy transfer) method. The determination was performed according to experimental procedures similar to those in "Pharmacological Experiment I": 1.2 Preparation of compounds: The compounds prepared in the examples were each dissolved in dimethylsulfoxide to give solutions at a concentration of 10 mmol/L. • 1) The compounds in the examples were each diluted from 10 mmol/L stock solution to 0.2 mmol/L, i.e., 1 µL of the compound was added to 49 µL of DMSO, and 3-fold dilution was performed to give 10 concentrations. • 2) 50 nL of the test compounds were transferred to 384 reaction plates using Echo, two replicates for each compound, and the plates were centrifuged at a rotation speed of 1000 rpm for 1 min, the final concentration of dimethylsulfoxide (DMSO) being 0.5%.
For KAT8: • 3) 2.5 µL of the KAT8 enzyme solution at a final concentration of 10 nM was added to the 384 reaction plates in step 2), and the plates were centrifuged at 1000 rpm for 1 min and incubated at 25 °C for 10 min. • 4) 2.5 µL of […] at a final concentration of 300 nM and an AcCOA (acetyl-CoA) reaction solution at a final concentration of 2 µM were added to the 384 reaction plates in step 3), and the plates were centrifuged at a rotation speed of 1000 rpm for 1 min and incubated at 25 °C for 90 min. • 5) 5 µL of Eu-Ab& Ulight-SA detection solution was separately added to the 384 reaction plates in step 4) of the 4 groups described above, and the plates were centrifuged at 1000 rpm for 1 min and incubated at 25 °C for 60 min. • 6) The HTRF […] signals were read using a BMG high-throughput drug-screening multi-mode microplate reader.
The acetylation levels of the histones in the groups were analyzed by the GraphPad Prism 8 software. […]
On the technique in general: Time-resolved FRET reads energy transfer from a long-lived donor to a nearby acceptor.

In experiment [1] the test system is human breast cancer cell line ZR-75-1. Kind of experiment: Assay for cell growth inhibitory activity (3D hydrogel culture, CCK-8). Conditions: 96 h; for viability at 0.0001 µM: ZR-75-1, 0.1 nM, read-out: Cell survival rate at example drug concentration 0.1 nM; for viability at 0.001 µM: ZR-75-1, 1 nM, read-out: Cell survival rate at example drug concentration 1 nM; for viability at 0.01 µM: ZR-75-1, 10 nM, read-out: Cell survival rate at example drug concentration 10 nM; for viability at 0.1 µM: ZR-75-1, 100 nM, read-out: Cell survival rate at example drug concentration 100 nM; for viability at 1 µM: ZR-75-1, 1000 nM, read-out: Cell survival rate at example drug concentration 1000 nM. Format: cell-based. As to the method: The human breast cancer cell line ZR-75-1 (1 × 10^^6 cells per cell culture dish with 100-mm diameter) was cultured in a 1640 culture medium, and 1% double antibiotics (streptomycin and penicillin), 10% fetal bovine serum (FBS), and 1% glutamine (Glumax) were added simultaneously. The cell culture dish was placed at 37 °C with 5% CO2 for 2 days for culture until the cell confluence reached 80%-90% to give cells in the logarithmic growth phase.
• 1) The example compounds were each dissolved in dimethylsulfoxide to give solutions at a concentration of 10 mmol/L, and the solutions were diluted to 250 µmol/L in 10-fold gradient for 5 concentrations, i.e., 0.2 nmol/L, 2 nmol/L, 20 nmol/L, 200 nmol/L, and 2000 nmol/L. • 2) Blank control wells were prepared by adding 0.1% dimethylsulfoxide to the cultured cells, and were used as high-reading control wells; cell-free 3D hydrogel was used as background wells. • 3) The cultured cells were separately added to the compounds in the examples at 0.2 nmol/L, 2 nmol/L, 20 nmol/L, 200 nmol/L, and 2000 nmol/L as test wells, with the same volumes as the original culture solutions.
• 1) The cells were collected, resuspended in a PBS balanced salt solution, and counted; and the cells were mixed with the 3D hydrogel stock solution and prepared into hydrogel cell suspensions with proper density. • 2) The 3D hydrogel cell suspension (5 × 10^^4 cells) was added to each well in 96-well cell culture plates with low surface adsorption, and the plates were incubated at 37 °C with 5% CO2 for 20 min. • 3) The complete culture medium containing the compound prepared in 1.2 with an equal volume to that of the cell suspension in step 2 was added to the 96-well cell culture plate. • 4) The cells were cultured at 37 °C in a 5% CO2 incubator for 96 h.
• 1) The complete culture medium in the upper layer above the hydrogel was pipetted from each well of the 96-well cell culture plate with a vacuum pump or a manual pipette with careful processing to avoid breaking the hydrogel lower layer. • 2) The complete culture medium containing the CCK-8 substrate with an equal volume to that of the original hydrogel was added to each well. • 3) The plate was cultured at 37 °C with 5% CO2 for 1 h. • 4) The 96-well cell culture plate was placed in a microplate reader, and the values of A450 and A630 were separately detected.
Data analysis: The relative inhibitory level was analyzed by using Excel software, and the survival rates of cells under different compound culture conditions were obtained; [formula]
High-reading control well: cells + dimethylsulfoxide; background well: cell-free hydrogel. Table 7. Cell proliferation inhibitory activity of some of example compounds

IC50 and viability data for six compounds are collected here from patent EP4692094A1 (Beijing Konruns Pharmaceutical Co., Ltd., priority 2023, dated 2024).

pIC50: −log10 of the molar value.

The term pIC50 denotes the negative decadic logarithm of the IC50, by convention in mol/L. For the compound `COc1cc2c(cc1S(=O)(=O)Nc1noc3cc(Cn4cccn4)nc(OC)c13)OCC2` [Example 59, N-(6-((1H-Pyrazol-1-yl)methyl)-4-methoxyisoxazolo[4,5-c]pyridin-3-yl)-5-methoxy-2,3-dihydrobenzofuran-6-sulfonamide], the pIC50 at KAT8 is 6.49.

As for `COc1nc(Cn2cccn2)cc2onc(NS(=O)(=O)c3cccc4c3OCCO4)c12` [Example 4, N-(6-((1H-Pyrazol-1-yl)methyl)-4-methoxyisoxazolo[4,5-c]pyridin-3-yl)-2,3-dihydrobenzo[b][1,4]dioxine-5-sulfonamide], in experiment [1], the viability at 0.0001 µM worked out at 75%, the viability at 0.001 µM was determined as 61%, the viability at 0.01 µM turned out to be 41% and the viability at 0.1 µM amounted to 37%. Further, in experiment [1], the viability at 1 µM came to 29%.

Consider `COc1cc2c(cc1S(=O)(=O)Nc1noc3cc(Cn4cccn4)nc(OC)c13)CCCC2` [Example 2, N-(6-((1H-Pyrazol-1-yl)methyl)-4-methoxyisoxazolo[4,5-c]pyridin-3-yl)-3-methoxy-5,6,7,8-tetrahydronaphthalene-2-sulfonamide], for which the negative logarithm of the IC50 (pIC50) against KAT8 was 6.93. Further, in experiment [1], the viability at 0.0001 µM amounted to 63%, the viability at 0.001 µM was 51%, the viability at 0.01 µM was 43% and the viability at 0.1 µM was determined as 43%. In experiment [1], the viability at 1 µM was 40%.

At KAT8, `COc1ccc2ccoc2c1S(=O)(=O)Nc1noc2cc(Cn3cccn3)nc(OC)c12` [Example 10, N-(6-((1H-Pyrazol-1-yl)methyl)-4-methoxyisoxazolo[4,5-c]pyridin-3-yl)-6-methoxybenzofuran-7-sulfonamide] had a pIC50 of 7.10. In addition, in experiment [1], the viability at 0.0001 µM was 62%, the viability at 0.001 µM is 45%, the viability at 0.01 µM is 39% and the viability at 0.1 µM was found to be 33%. The viability at 1 µM in experiment [1] stood at 29%.

With `COc1ccc2c(c1S(=O)(=O)Nc1noc3cc(Cn4cccn4)nc(OC)c13)OCC2` [Example 9, N-(6-((1H-Pyrazol-1-yl)methyl)-4-methoxyisoxazolo[4,5-c]pyridin-3-yl)-6-methoxy-2,3-dihydrobenzofuran-7-sulfonamide], in experiment [1], the viability at 0.0001 µM worked out at 63%, the viability at 0.001 µM came out at 48%, the viability at 0.01 µM is 41% and the viability at 0.1 µM came out at 38%. Further, in experiment [1], the viability at 1 µM was determined as 32%.

`COc1nc(Cn2cccn2)cc2onc(NS(=O)(=O)c3cccc4ccoc34)c12` [Example 5, N-(6-((1H-Pyrazol-1-yl)methyl)-4-methoxyisoxazolo[4,5-c]pyridin-3-yl)benzofuran-7-sulfonamide]: in experiment [1], the viability at 0.0001 µM worked out at 80%, the viability at 0.001 µM was 85%, the viability at 0.01 µM came to 69% and the viability at 0.1 µM is 54%. For the same compound, the viability at 1 µM in experiment [1] turned out to be 35%.
